Experimental data: ChEMBL document CHEMBL5338809, “Fragment-Based Discovery of Azocyclic Alkyl Naphthalenesulfonamides as Keap1-Nrf2 Inhibitors for Acute Lung Injury Treatment” (J Med Chem, 2023)
Values after ≈ are worked out from the molar mass of the structure shown. One block for each molecule: values may come before it. Active and inactive are the calls of the source. The rule behind the calls is not given here.

What was measured:
Mus musculus [1] = experiment: (§1) Antiinflammatory activity in LPS-induced C57BL/6 mouse model of […] assessed as reduction in congestion in lung tissue at 2.5 to 10 mg/kg, ip pretreated with compound for 30 mins followed by LPS stimulation and measured after 6 hrs by hematoxylin and eosin staining method; assay type: functional, organism-based; conditions: dose 2.5-10 mg/kg, time 390.0 min
Mus musculus [2] = experiment: Antiinflammatory activity in LPS-induced C57BL/6 mouse model of […] assessed as inhibition of IL6 expression in lung tissue at 2.5 to 10 mg/kg, ip pretreated with compound for 30 mins followed by LPS stimulation and measured after 6 hrs by qRT-PCR analysis; assay type: functional, organism-based; conditions: dose 2.5-10 mg/kg, time 390.0 min
Mus musculus [3] = experiment: as §1, with “inflammatory cell infiltrations” for “congestion”; assay type: functional, organism-based; conditions: dose 2.5-10 mg/kg, time 390.0 min
Mus musculus [4] = experiment: Antiinflammatory activity in LPS-induced C57BL/6 mouse model of […] assessed as inhibition of TNFalpha expression in lung tissue at 2.5 to 10 mg/kg, ip pretreated with compound for 30 mins followed by LPS stimulation and measured after 6 hrs by qRT-PCR analysis; assay type: functional, organism-based; conditions: dose 2.5-10 mg/kg, time 390.0 min
Mus musculus [5] = experiment: Antiinflammatory activity in LPS-induced C57BL/6 mouse model of […] assessed as inhibition of IL1beta expression in lung tissue at 2.5 to 10 mg/kg, ip pretreated with compound for 30 mins followed by LPS stimulation and measured after 6 hrs by qRT-PCR analysis; assay type: functional, organism-based; conditions: dose 2.5-10 mg/kg, time 390.0 min
Mus musculus [6] = experiment: Antiinflammatory activity in LPS-induced C57BL/6 mouse model of […] assessed as Nrf2 nuclear translocation in lung tissue at 2.5 to 10 mg/kg, ip pretreated with compound for 30 mins followed by LPS stimulation and measured after 6 hrs by Western blotting analysis; assay type: functional, organism-based; conditions: dose 2.5-10 mg/kg, time 390.0 min
Mus musculus [7] = experiment: Antiinflammatory activity in LPS-induced C57BL/6 mouse model of […] assessed as reduction in bleeding points in lung tissue at 2.5 to 10 mg/kg, ip pretreated with compound for 30 mins followed by LPS stimulation and measured after 6 hrs by hematoxylin and eosin staining method; assay type: functional, organism-based; conditions: dose 2.5-10 mg/kg, time 390.0 min
[8] = target: Keap1/Nrf2 (Homo sapiens) (UniProt Q16236+Q14145); experiment: Binding affinity to human Keap1-Nrf2 protein-protein interaction assessed as dissociation constant (Kd2) incubated for 60 mins by fluorescent polarization assay
Mus musculus [9] = experiment: Antiinflammatory activity in LPS-induced C57BL/6 mouse model of […] assessed as inhibition of TNFalpha level in BALF administered intraperitoneally pretreated with compound for 30 mins followed by LPS stimulation and measured after 6 hrs by ELISA method; assay type: functional, organism-based; conditions: dose 2.5-10 mg/kg, route ip, time 390.0 min
Mus musculus [10] = experiment: Antiinflammatory activity in LPS-induced C57BL/6 mouse model of […] assessed as inhibition of IL1beta level in BALF administered intraperitoneally pretreated with compound for 30 mins followed by LPS stimulation and measured after 6 hrs by ELISA method; assay type: functional, organism-based; conditions: dose 2.5-10 mg/kg, route ip, time 390.0 min
Peritoneal macrophage [11] = experiment: Antiinflammatory activity in mouse peritoneal macrophages assessed as reduction in LPS-induced IL6 level at 10 uM incubated for 4 hrs by ELISA method; assay type: functional, cell-based
Mus musculus [12] = experiment: Antiinflammatory activity in LPS-induced C57BL/6 mouse model of […] assessed as inhibition of IL6 level in BALF administered intraperitoneally pretreated with compound for 30 mins followed by LPS stimulation and measured after 6 hrs by ELISA method; assay type: functional, organism-based; conditions: dose 2.5-10 mg/kg, route ip, time 390.0 min
[13] = Oral bioavailability in Sprague-Dawley rat; assay type: ADME, organism-based; conditions: in vivo
Peritoneal macrophage [14] = experiment: Antiinflammatory activity in mouse peritoneal macrophages assessed as fold reduction in LPS-induced TNFalpha level at 10 uM incubated for 4 hrs by ELISA method; assay type: functional
[15] = Clearance in Sprague-Dawley rat at 5 mg/kg, iv; assay type: ADME, organism-based; conditions: in vivo
[16] = Half life in Sprague-Dawley rat at 5 mg/kg, iv; assay type: ADME, organism-based; conditions: in vivo
[17] = Apparent volume of distribution in Sprague-Dawley rat at 20 mg/kg, ip; assay type: ADME, organism-based; conditions: in vivo
[18] = Aqueous solubility of the compound in PBS at pH 7 at 2 mg incubated for 24 hrs by HPLC-UV analysis; assay type: physicochemical
[19] = Apparent volume of distribution in Sprague-Dawley rat at 5 mg/kg, iv; assay type: ADME, organism-based; conditions: in vivo, read-out: Vz
[20] = Cmax in Sprague-Dawley rat at 20 mg/kg, ip; assay type: ADME, organism-based; parameters: dose 20 mg/kg, route ip; conditions: in vivo
[21] = AUC (0 to infinity) in Sprague-Dawley rat at 20 mg/kg, ip; assay type: ADME, organism-based; parameters: dose 20 mg/kg, route ip; conditions: in vivo
[22] = MRT (0 to infinity) in Sprague-Dawley rat at 20 mg/kg, ip; assay type: ADME, organism-based; conditions: in vivo
[23] = Half life in Sprague-Dawley rat at 20 mg/kg, ip; assay type: ADME, organism-based; conditions: in vivo
[24] = Cytotoxicity against mouse peritoneal macrophages assessed as reduction in cell viability incubated for 24 hrs by Cell titer-blue assay; assay type: toxicity, cell-based, Peritoneal macrophage
[25] = MRT (0 to 24 hrs) in Sprague-Dawley rat at 5 mg/kg, iv; assay type: ADME, organism-based; conditions: in vivo
[26] = MRT (0 to infinity) in Sprague-Dawley rat at 5 mg/kg, iv; assay type: ADME, organism-based; conditions: in vivo
[27] = AUC (0 to infinity) in Sprague-Dawley rat at 5 mg/kg, iv; assay type: ADME, organism-based; parameters: dose 5 mg/kg, route iv; conditions: in vivo
[28] = MRT (0 to 24 hrs) in Sprague-Dawley rat at 20 mg/kg, ip; assay type: ADME, organism-based; conditions: in vivo
[29] = AUC (0 to 24 hrs) in Sprague-Dawley rat at 20 mg/kg, ip; assay type: ADME, organism-based; parameters: dose 20 mg/kg, route ip; conditions: in vivo
[30] = Clearance in Sprague-Dawley rat at 20 mg/kg, ip; assay type: ADME, organism-based; conditions: in vivo
[31] = AUC (0 to 24 hrs) in Sprague-Dawley rat at 5 mg/kg, iv; assay type: ADME, organism-based; parameters: dose 5 mg/kg, route iv; conditions: in vivo
[32] = Tmax in Sprague-Dawley rat at 20 mg/kg, ip; assay type: ADME, organism-based; conditions: in vivo
[33] = Aqueous solubility of the compound in PBS at pH 2 at 2 mg incubated for 24 hrs by HPLC-UV analysis; assay type: physicochemical
[34] = Aqueous solubility of the compound in PBS at pH 7.4 at 2 mg incubated for 24 hrs by HPLC-UV analysis; assay type: physicochemical

Keap1/Nrf2 (Homo sapiens), sequence (Q14145 whole entry, looked up): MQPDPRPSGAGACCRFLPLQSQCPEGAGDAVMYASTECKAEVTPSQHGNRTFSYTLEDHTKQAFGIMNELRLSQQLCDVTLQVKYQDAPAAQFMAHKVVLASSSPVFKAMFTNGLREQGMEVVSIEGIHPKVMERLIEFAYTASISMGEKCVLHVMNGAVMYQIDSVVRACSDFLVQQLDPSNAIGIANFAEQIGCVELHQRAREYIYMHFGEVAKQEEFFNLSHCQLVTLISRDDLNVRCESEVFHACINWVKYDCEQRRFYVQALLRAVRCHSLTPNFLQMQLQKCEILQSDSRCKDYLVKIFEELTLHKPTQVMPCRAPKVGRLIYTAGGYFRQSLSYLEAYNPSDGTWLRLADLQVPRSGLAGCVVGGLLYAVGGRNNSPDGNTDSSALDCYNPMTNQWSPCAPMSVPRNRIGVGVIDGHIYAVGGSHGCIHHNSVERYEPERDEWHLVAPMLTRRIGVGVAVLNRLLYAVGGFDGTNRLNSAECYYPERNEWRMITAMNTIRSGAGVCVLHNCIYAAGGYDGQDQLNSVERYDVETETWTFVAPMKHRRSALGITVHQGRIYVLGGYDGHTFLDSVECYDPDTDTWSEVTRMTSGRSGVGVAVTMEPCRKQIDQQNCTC
Keap1/Nrf2 (Homo sapiens), sequence (Q16236 whole entry, looked up): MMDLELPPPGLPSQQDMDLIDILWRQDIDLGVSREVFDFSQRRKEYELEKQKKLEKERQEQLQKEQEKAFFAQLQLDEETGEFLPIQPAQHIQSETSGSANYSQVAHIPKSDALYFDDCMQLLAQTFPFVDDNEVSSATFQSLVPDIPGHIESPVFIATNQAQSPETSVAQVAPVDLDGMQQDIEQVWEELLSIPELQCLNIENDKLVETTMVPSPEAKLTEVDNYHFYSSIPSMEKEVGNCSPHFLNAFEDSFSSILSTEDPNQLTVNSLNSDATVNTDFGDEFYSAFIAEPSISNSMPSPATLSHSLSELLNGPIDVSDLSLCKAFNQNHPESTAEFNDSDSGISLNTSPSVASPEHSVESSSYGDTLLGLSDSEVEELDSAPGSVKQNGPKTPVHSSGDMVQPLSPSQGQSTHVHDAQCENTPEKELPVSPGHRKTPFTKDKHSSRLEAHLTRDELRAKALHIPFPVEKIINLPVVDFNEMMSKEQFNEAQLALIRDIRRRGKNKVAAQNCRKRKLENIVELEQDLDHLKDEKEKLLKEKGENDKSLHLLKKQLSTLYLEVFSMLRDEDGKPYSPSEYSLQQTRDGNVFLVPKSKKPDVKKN

- K [8]: 220 nM
SMILES: COc1ccc(S(=O)(=O)N(CC(N)=O)c2ccc(N(CC(N)=O)S(=O)(=O)c3ccc(NC(=O)[C@H]4CCN4)cc3)c3ccccc23)cc1 [listing 1 of 2 here]
- Activity (Mus musculus [1]): Active
- inhibition (Mus musculus [2]): Active
- Activity (Mus musculus [3]): Active
- inhibition (Mus musculus [4]): Active
- inhibition (Mus musculus [5]): Active
- Activity (Mus musculus [6]): Active
- Activity (Mus musculus [7]): Active
- inhibition (Mus musculus [9]): Dose-Dependent Effect
- inhibition (Mus musculus [10]): Dose-Dependent Effect
- Activity (Peritoneal macrophage [11]): Active
- inhibition (Mus musculus [12]): Dose-Dependent Effect

- bioavailability [13]: 20%
SMILES: CCN1CCN(CCC(=O)Nc2ccc(S(=O)(=O)N(CC(N)=O)c3ccc(N(CC(N)=O)S(=O)(=O)c4ccc(OC)cc4)c4ccccc34)cc2)CC1.Cl

- clearance [15]: 57.4 mL/min/kg
- half-life [16]: 12.7 h
- Vz [17]: 16.24474 L/kg
- solubility at 24 h [18]: 404 µg/mL (≈ 593 µM)
- Vd [19]: 60.5 L/kg
- Cmax [20]: 8430 ng/mL
- AUC(0-inf) [21]: 11200 ng·h/mL
- MRT inf [22]: 1.97 h
- half-life [23]: 5.75 h
- MRT last [25]: 2.83 h
- MRT inf [26]: 9.67 h
- AUC(0-inf) [27]: 1590 ng·h/mL
- MRT last [28]: 1.75 h
- AUC(0-t) [29]: 11200 ng·h/mL
- CL/F [30]: 31.8 mL/min/kg
- AUC(0-t) [31]: 1390 ng·h/mL
- Tmax [32]: 0.38 h
- solubility at 24 h [33]: 601 µg/mL (≈ 883 µM)
- solubility at 24 h [34]: 216 µg/mL (≈ 318 µM)
SMILES: COc1ccc(S(=O)(=O)N(CC(N)=O)c2ccc(N(CC(N)=O)S(=O)(=O)c3ccc(NC(=O)[C@H]4CCN4)cc3)c3ccccc23)cc1 [listing 2 of 2 here]
- fold change (FC) (Peritoneal macrophage [14]): <=0.5
- CC50 at 24 h [24]: > 100 µM
